Counter-ions that a name gives are not always drawn.
test system: HMOX1; experiment: HMOX1 Protein Assay (immunostaining of HO-1 in NHLF cells, GE InCell 1000); format: cell-based; settings: Homo sapiens, fold change above DMSO treated cells, 3 μM compound (asterisk), 16 h
Outline: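 Fold induction of HO-1 over vehicle, normally at 5 μM compound (asterisk marks 3 μM), in 0.8% DMSO medium. Normal human lung fibroblasts were treated 16 h, then paraformaldehyde-fixed, anti-HO-1/Alexa 488 stained with Hoechst, and read by high-content imaging.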

How did the fold induction at 3 µM turn out when CN(C)CCCC[C@H](NC(=O)c1ccc2c(c1)nc(Nc1nc3ccc(C(F)(F)F)cc3s1)n2C)C(=O)N(C)C [Example 370, 1-Methyl-2-(6-trifluoromethyl-benzothiazol-2-ylamino)-1H-benzoimidazole-5-carboxylic acid ((S)-5-dimethylamino-1-dimethylcarbamoyl-pentyl)-amide] was run?
Its fold induction at 3 µM is 19.3.

CO[C@H]1CCCN(C(=O)CNC(=O)c2ccc3c(c2)nc(Nc2nc4ccc(Cl)cc4s2)n3C)C1 [Example 444, 2-(6-Chloro-benzothiazol-2-ylamino)-1-methyl-1H-benzoimidazole-5-carboxylic acid [2-((S)-3-methoxy-piperidin-1-yl)-2-oxo-ethyl]-amide] was tested. Which fold induction at 3 µM did it give?
Its fold induction at 3 µM is 32.

With Cn1c(Nc2nc3ccc(C(F)(F)F)cc3s2)nc2cc(C(=O)NCC(=O)N3CCC(O)CC3)ccc21 [Example 437, 1-Methyl-2-(6-trifluoromethyl-benzothiazol-2-ylamino)-1H-benzoimidazole-5-carboxylic acid [2-(4-hydroxy-piperidin-1-yl)-2-oxo-ethyl]-amide] as the compound, how does the fold induction at 3 µM read?
The fold induction at 3 µM was 47.1.

For C[C@H](O)CNC(=O)c1ccc2c(c1)nc(Nc1nc3ccc(C(F)(F)F)cc3s1)n2C [Example 206, 1-Methyl-2-(6-trifluoromethyl-benzothiazol-2-ylamino)-1H-benzoimidazole-5-carboxylic acid ((S)-2-hydroxy-propyl)-amide], which fold induction at 3 µM is on record?
The fold induction at 3 µM was 27.

same assay, conditions: Homo sapiens, fold change above DMSO treated cells, 5 μM compound, 16 h

For COC(=O)c1ccc2c(c1)nc(Nc1nc3ccc(F)cc3s1)n2C [Example 112, 2-(6-Fluoro-benzothiazol-2-ylamino)-1-methyl-1H-benzoimidazole-5-carboxylic acid methyl ester], which fold induction at 5 µM is on record?
Its fold induction at 5 µM is 17.5.

With Cn1c(Nc2nc3ccc(Cl)cc3s2)nc2cc(C(=O)NCCN3CCNC(=O)C3)ccc21 [Example 331, 2-(6-Chloro-benzothiazol-2-ylamino)-1-methyl-1H-benzoimidazole-5-carboxylic acid [2-(3-oxo-piperazin-1-yl)-ethyl]-amide] as the compound, how does the fold induction at 5 µM read?
Its fold induction at 5 µM is 70.1.

With CN(C)C(=O)[C@@H]1CCCN1C(=O)CNC(=O)c1ccc2c(c1)nc(Nc1nc3ccc(Cl)cc3s1)n2C [Example 419, 2-(6-Chloro-benzothiazol-2-ylamino)-1-methyl-1H-benzoimidazole-5-carboxylic acid [2-((S)-2-dimethylcarbamoyl-pyrrolidin-1-yl)-2-oxo-ethyl]-amide] as the compound, how does the fold induction at 5 µM read?
The fold induction at 5 µM was 28.

COCC1CCN(C(=O)CNC(=O)c2ccc3c(c2)nc(Nc2nc4ccc(OC(F)(F)F)cc4s2)n3C)CC1 [Example 447, 1-Methyl-2-(6-trifluoromethoxy-benzothiazol-2-ylamino)-1H-benzoimidazole-5-carboxylic acid [2-(4-methoxymethyl-piperidin-1-yl)-2-oxo-ethyl]-amide] was tested. Which fold induction at 5 µM did it give?
The fold induction at 5 µM was 58.4.

CN(C)C1CCN(C(=O)CNC(=O)c2ccc3c(c2)nc(Nc2nc4ccc(OC(F)(F)F)cc4s2)n3C)CC1 [Example 455, 1-Methyl-2-(6-trifluoromethoxy-benzothiazol-2-ylamino)-1H-benzoimidazole-5-carboxylic acid [2-(4-dimethylamino-piperidin-1-yl)-2-oxo-ethyl]-amide] was tested. Which fold induction at 5 µM did it give?
The fold induction at 5 µM was 80.4.

Cn1c(Nc2nc3ccc(Cl)cc3s2)nc2cc(C(=O)NCCOCCCO)ccc21 [Example 248, 2-(6-Chloro-benzothiazol-2-ylamino)-1-methyl-1H-benzoimidazole-5-carboxylic acid [2-(3-hydroxy-propoxy)-ethyl]-amide] was tested. Which fold induction at 5 µM did it give?
Its fold induction at 5 µM is 58.7.

COC(=O)c1cc2nc(Nc3nc4ccc(OC(F)(F)F)cc4s3)n(C)c2cc1F [Example 40, 6-Fluoro-1-methyl-2-(6-trifluoromethoxy-benzothiazol-2-ylamino)-1H-benzoimidazole-5-carboxylic acid methyl ester] was tested. Which fold induction at 5 µM did it give?
Its fold induction at 5 µM is 11.8.

How did the fold induction at 5 µM turn out when Cn1c(Nc2nc3ccc(OC(F)(F)F)cc3s2)nc2cc(C(=O)NCCOCC(C)(C)O)ccc21 [Example 245, 1-Methyl-2-(6-trifluoromethoxy-benzothiazol-2-ylamino)-1H-benzoimidazole-5-carboxylic acid [2-(2-hydroxy-2-methyl-propoxy)-ethyl]-amide] was run?
Its fold induction at 5 µM is 33.1.

With CCOCCNC(=O)c1ccc2c(c1)nc(Nc1nc3ccc(OC(F)(F)F)cc3s1)n2CCF [Example 172, 1-(2-Fluoro-ethyl)-2-(6-trifluoromethoxy-benzothiazol-2-ylamino)-1H-benzoimidazole-5-carboxylic acid (2-ethoxy-ethyl)-amide] as the compound, how does the fold induction at 5 µM read?
The fold induction at 5 µM was 21.4.

How did the fold induction at 5 µM turn out when Cn1c(Nc2nc3ccc(OC(F)(F)F)cc3s2)nc2cc(C(=O)NCCOC(F)(F)F)ccc21 [Example 44, 1-Methyl-2-(6-trifluoromethoxy-benzothiazol-2-ylamino)-1H-benzoimidazole-5-carboxylic acid (2-trifluoromethoxy-ethyl)-amide] was run?
The fold induction at 5 µM was 12.1.

CN1CCC(NC(=O)CNC(=O)c2ccc3c(c2)nc(Nc2nc4ccc(Cl)cc4s2)n3C)CC1 [Example 386, 2-(6-Chloro-benzothiazol-2-ylamino)-1-methyl-1H-benzoimidazole-5-carboxylic acid [(1-methyl-piperidin-4-ylcarbamoyl)-methyl]-amide] was tested. Which fold induction at 5 µM did it give?
The fold induction at 5 µM was 58.3.

With CCNC(=O)c1cnc2c(c1)nc(Nc1nc3ccc(OC(F)(F)F)cc3s1)n2C [Example 76, 3-Methyl-2-(6-trifluoromethoxy-benzothiazol-2-ylamino)-3H-imidazo[4,5-b]pyridine-6-carboxylic acid ethylamide] as the compound, how does the fold induction at 5 µM read?
The fold induction at 5 µM was 22.5.

How did the fold induction at 5 µM turn out when Cn1c(Nc2nc3ccc(C(F)(F)F)cc3s2)nc2cc(C(=O)O)ccc21 [Example 24, 1-Methyl-2-(6-trifluoromethyl-benzothiazol-2-ylamino)-1H-benzoimidazole-5-carboxylic acid] was run?
Its fold induction at 5 µM is 20.7.

Which fold induction at 5 µM does the source give for Cn1c(Nc2nc3ccc(OC(F)(F)F)cc3s2)nc2cc(C(=O)NC3CCCN(C(=O)OC(C)(C)C)C3)ccc21 (stereo not drawn) [Example 94, 3-{[1-Methyl-2-(6-trifluoromethoxy-benzothiazol-2-ylamino)-1H-benzoimidazole-5-carbonyl]-amino}-piperidine-1-carboxylic acid tert-butyl ester] here?
The fold induction at 5 µM was 1.2.

With Cn1c(Nc2nc3ccc(OC(F)(F)F)cc3s2)nc2cc(C(=O)NCCN3CCCCC3)ccc21 [Example 333, 1-Methyl-2-(6-trifluoromethoxy-benzothiazol-2-ylamino)-1H-benzoimidazole-5-carboxylic acid (2-piperidin-1-yl-ethyl)-amide] as the compound, how does the fold induction at 5 µM read?
Its fold induction at 5 µM is 14.5.

For Cn1c(Nc2nc3ccc(OC(F)(F)F)cc3s2)nc2ccc(C#N)cc21 [Example 195, 1-Methyl-2-(6-trifluoromethoxy-benzothiazol-2-ylamino)-1H-benzoimidazole-6-carbonitrile], which fold induction at 5 µM is on record?
Its fold induction at 5 µM is 4.4.

Which fold induction at 5 µM does the source give for Cn1c(Nc2nc3ccc(OC(F)(F)F)cc3s2)nc2cc(C(=O)NCCN3CCOCC3)ccc21 [Example 43, 1-Methyl-2-(6-trifluoromethoxy-benzothiazol-2-ylamino)-1H-benzoimidazole-5-carboxylic acid (2-morpholin-4-yl-ethyl)-amide] here?
The fold induction at 5 µM was 29.6.

How did the fold induction at 5 µM turn out when CN(C)C(=O)CCCNC(=O)c1ccc2c(c1)nc(Nc1nc3ccc(Cl)cc3s1)n2C [Example 376, 2-(6-Chloro-benzothiazol-2-ylamino)-1-methyl-1H-benzoimidazole-5-carboxylic acid (3-dimethylcarbamoyl-propyl)-amide] was run?
Its fold induction at 5 µM is 19.1.

Which fold induction at 5 µM does the source give for COCC(C)NC(=O)c1ccc2c(c1)nc(Nc1nc3ccc(OC(F)(F)F)cc3s1)n2C (stereo not drawn) [Example 20, 1-Methyl-2-(6-trifluoromethoxy-benzothiazol-2-ylamino)-1H-benzoimidazole-5-carboxylic acid (2-methoxy-1-methyl-ethyl)-amide] here?
Its fold induction at 5 µM is 18.6.

With Cn1c(Nc2nc3ccc(OC(F)(F)F)cc3s2)nc2cc(C(=O)NCC(=O)N3CC[C@H](N)C3)ccc21 [Example 412, 1-Methyl-2-(6-trifluoromethoxy-benzothiazol-2-ylamino)-1H-benzoimidazole-5-carboxylic acid [2-((S)-3-amino-pyrrolidin-1-yl)-2-oxo-ethyl]-amide hydrochloride] as the compound, how does the fold induction at 5 µM read?
Its fold induction at 5 µM is 47.6.

With COCCNC(=O)c1ccc2c(c1)nc(Nc1nc3cc(F)ccc3s1)n2C [Example 123, 2-(5-Fluoro-benzothiazol-2-ylamino)-1-methyl-1H-benzimidazole-5-carboxylic acid (2-methoxy-ethyl)-amide] as the compound, how does the fold induction at 5 µM read?
Its fold induction at 5 µM is 12.7.

How did the fold induction at 5 µM turn out when CN1CC[C@@H](NC(=O)c2ccc3c(c2)nc(Nc2nc4ccc(Cl)cc4s2)n3C)C1 [Example 316, 2-(6-Chloro-benzothiazol-2-ylamino)-1-methyl-1H-benzoimidazole-5-carboxylic acid ((R)-1-methyl-pyrrolidin-3-yl)-amide] was run?
The fold induction at 5 µM was 18.1.

With COCCn1c(Nc2nc3ccc(Cl)cc3s2)nc2cc(C(=O)NCC(=O)N3CCC(O)CC3)ccc21 [Example 438, 2-(6-Chloro-benzothiazol-2-ylamino)-1-(2-methoxy-ethyl)-1H-benzoimidazole-5-carboxylic acid [2-(4-hydroxy-piperidin-1-yl)-2-oxo-ethyl]-amide] as the compound, how does the fold induction at 5 µM read?
The fold induction at 5 µM was 25.9.

For CN(C)CC(=O)NCCNC(=O)c1ccc2c(c1)nc(Nc1nc3ccc(Cl)cc3s1)n2C [Example 324, 2-(6-Chloro-benzothiazol-2-ylamino)-1-methyl-1H-benzoimidazole-5-carboxylic acid [2-(2-dimethylamino-acetylamino)-ethyl]-amide], which fold induction at 5 µM is on record?
Its fold induction at 5 µM is 27.9.

CNC(=O)c1ccc2c(c1)nc(Nc1nc3ccc(OC(F)(F)F)cc3s1)n2CC(C)C [Example 164, 1-Isobutyl-2-(6-trifluoromethoxy-benzothiazol-2-ylamino)-1H-benzoimidazole-5-carboxylic acid methylamide] was tested. Which fold induction at 5 µM did it give?
The fold induction at 5 µM was 20.5.

How did the fold induction at 5 µM turn out when CCn1c(Nc2nc3ccc(C(F)(F)F)cc3s2)nc2cc(C(=O)NC)ccc21 [Example 180, 1-Ethyl-2-(6-trifluoromethyl-benzothiazol-2-ylamino)-1H-benzoimidazole-5-carboxylic acid methylamide] was run?
The fold induction at 5 µM was 12.4.
